Experimental data taken from patent publication US20240166658A1, “PORPHYRIN DERIVATIVES AND USES THEREOF” (University of Tasmania, priority 2021, published 2024).

Key:
[1] = GenX vapour test with host-doped filter paper; conditions: for colour of host-doped paper in tube headspace: one hour
Protocol: A solution of medium chain host (9) (2.20×10^−5 M) in dichloromethane was prepared. Whatman 4 filter papers were soaked/dipped in the host solution and left to air dry on a watch glass. An aqueous solution of GenX™ (1 ppm, 3.03×10^−6 M) was prepared in a glass volumetric flask (1 L). The volumetric flask stopper was removed, and the dried host-doped paper was laid on top the opening.
An aqueous solution of GenX™ (1 ppm, 3.03×10^−6 M) was prepared in a glass volumetric flask (1 L). A solution of medium chain host (2.20×10^−5 M) in dichloromethane was prepared. Whatman 4 filter papers were soaked/dipped in the host solution and left to air dry on a watch glass. The filter papers were cut into strips and adhered to the lids of HDPP tubes. Aqueous samples of GenX™ were diluted to 1 ppm, 1 ppb and 1 ppt and poured into the HDPP tubes. The caps were immediately replaced, and the tubes were left for an hour.

[2] = UV-Vis host-guest titration, association constant; type: binding; conditions: host (9) in dichloromethane; triplicate, TBA salt and acid; Bindfit
Protocol: (§1) Path length of the quartz cell was 1 cm. For UV-vis titrations, a stock solution of host was prepared (2.2×10^−3 M) in dichloromethane (DCM) and serially diluted to the required concentrations. Working solutions of tetrabutylammonium (TBA) anion salts or guest molecules were prepared in the same manner Host−guest titrations used solutions of guest prepared in the working concentration of host solution, according to the procedure of Thordarson, 2011.
(§2) UV-vis spectroscopic host−guest titrations were performed in accordance with the methodologies of Thordarson, 2011. Solutions of host in dichloromethane were prepared. Solutions of guest were then prepared in the host solution. Aliquots of guest in host solution were added to host solution and sequentially analysed until a known molar equivalent of guest was added. The amount of guest added per aliquot was ascertained by a preliminary screening experiment; strong association constants required smaller molar equivalents so more information could be collected. By way of example, host (9) responded to 0.1 molar equivalent of PFBA strongly, so an addition of 1 molar equivalent of PFBA would result in a loss of information. The inverse is true for weaker binding interactions. […]
(§3) A host solution of host (9) in dichloromethane was monitored using UV-Vis analysis as 0.5-10 equivalents of each PFAS was added. […]

[3] = GenX, water and HDPP tube experiment (biphasic)
Protocol: A solution of medium chain amide host (2.04×10^−5 M) in dichloromethane was added to an aqueous solution of GenX™ (5 ppm, 1.51×10^−5 M 50 mL) in a volumetric flask. […] Both phases were then transferred via pouring to a HDPP tube. The green colour persisted initially but began to reduce with time.

[4] = UV-Vis host-guest titration, association constant; type: binding; conditions: host (9) in dichloromethane; triplicate, TBA salt and acid; Bindfit; remark: listed apart in the source
Protocol: as §1, §2, §3

[5] = UV-Vis host-guest titration, association constant; type: binding; conditions: host (9) in dichloromethane; triplicate, TBA salt and acid; Bindfit; remark: listed apart in the source
Protocol: as §1, §2, §3

[6] = Preliminary binding study, colour change
Source text: Preliminary binding studies were undertaken by combining an amide linked porphyrin host molecule (9) and tetrabutylammonium perfluorooctanoate (TBAPFO) in dichloromethane.

Filter paper tests = conditions: aqueous PFOA in the <5 ppm range, dipped or dropped
Protocol: Sensor molecule (9) was dissolved in dichloromethane and filter papers were soaked in the solution. The papers were removed and dried by evaporation. The paper was then dipped into aqueous solutions of PFOA or aqueous solutions were dropped onto the paper. […] The aqueous solutions of PFOA tested were in the <5 ppm range.

[7] = RGB response, low PFCA concentration
Source text: RGB response curves were established by combining solutions of host (12) (5.01×10^−6 M) with solutions of PFOA (0-16 ppm, 3.86×10^−5 M) in dichloromethane. […] Thus, when establishing a calibration curve, the relative proportion of free host to host−PFCA complex limiting the variability of colour response must be considered for the application.
In the “low” PFCA concentration experiment, the RGB response values had the greatest rate of change from 0-40 ppb PFOA and appeared to level out between 40-80 ppb PFOA. In that instance, the regression was fit for a host : guest ratio of 0-0.8. To probe the sensor's response to a mixture of PFCAs, samples containing combinations of PFHxA, PFHpA, and PFDA in dichloromethane (7-28 ppb) were prepared and the RGB responses were collected. The PFCA concentrations for the samples were predicted using the PFOA regression (y=0.0591 ln(x)+0.037, R^2=0.9771).
The RGB response values can differentiate between 0 and 1 ppb PFOA numerically on the regression, but to determine the visual detectability, the ΔE values can be calculated. […] Samples from 0-5 ppb PFOA gave a colour change that could be determined as different from the starting host solution (ΔE=4-8) (Table 11). […] Thus, a conservative visual limit of detection of 10 ppb PFCA may be considered for an untrained observer making threshold analysis.

O=C(Nc1ccccc1-c1c2nc(c(-c3ccccc3NC(=O)C(F)(F)C(F)(F)C(F)(F)C(F)(F)C(F)(F)C(F)(F)C(F)(F)F)c3ccc([nH]3)c(-c3ccccc3NC(=O)C(F)(F)C(F)(F)C(F)(F)C(F)(F)C(F)(F)C(F)(F)C(F)(F)F)c3nc(c(-c4ccccc4NC(=O)C(F)(F)C(F)(F)C(F)(F)C(F)(F)C(F)(F)C(F)(F)C(F)(F)F)c4ccc1[nH]4)C=C3)C=C2)C(F)(F)C(F)(F)C(F)(F)C(F)(F)C(F)(F)C(F)(F)C(F)(F)F [host (9), α,α,α,α-5,10,15,20-tetrakis(2-(pentadecafluorooctanoylamino)phenyl)porphyrin]
colour change of host-doped paper over aqueous GenX ([1]; GenX 1 ppm in water, paper on flask opening): A colour change developed immediately
colour of host-doped paper in tube headspace ([1]; aqueous GenX 1 ppb): A green colour was visible
colour of host-doped paper in tube headspace ([1]; aqueous GenX 1 ppm): A green colour was visible
K value (averaged association constant Ka) [2]: 20459
colour of host solution after transfer to HDPP tube ([3]; after 24 hours): significant reduction in the intensity of the green colour
colour of host solution ([3]; host 2.04×10^−5 M in dichloromethane added to aqueous GenX 5 ppm): immediately became a vibrant green colour
K value (averaged association constant Ka) [4]: 6585
K value (averaged association constant Ka) [5]: 15272
colour change of host solution ([6]; addition of solid TBAPFO to red-brown host solution in dichloromethane): changed colour to green
colour change of host solution, biphasic ([6]; host in dichloromethane (0.0124 mmol, 5 mL) and TBAPFO 3 ppm in water (500 mL)): colour change of the host solution could also be observed
colour change of host-soaked filter paper (Filter paper tests): A colour change was discernible

O=C(Nc1ccccc1-c1c2nc(c(-c3ccccc3NC(=O)C(F)(F)C(F)(F)C(F)(F)C(F)(F)C(F)(F)C(F)(F)C(F)(F)C(F)(F)C(F)(F)C(F)(F)C(F)(F)F)c3ccc([nH]3)c(-c3ccccc3NC(=O)C(F)(F)C(F)(F)C(F)(F)C(F)(F)C(F)(F)C(F)(F)C(F)(F)C(F)(F)C(F)(F)C(F)(F)C(F)(F)F)c3nc(c(-c4ccccc4NC(=O)C(F)(F)C(F)(F)C(F)(F)C(F)(F)C(F)(F)C(F)(F)C(F)(F)C(F)(F)C(F)(F)C(F)(F)C(F)(F)F)c4ccc1[nH]4)C=C3)C=C2)C(F)(F)C(F)(F)C(F)(F)C(F)(F)C(F)(F)C(F)(F)C(F)(F)C(F)(F)C(F)(F)C(F)(F)C(F)(F)F [host (12), α,α,α,α-5,10,15,20-tetrakis(2-(tricosafluorododecanoylamino)phenyl) porphyrin]
ΔE vs host solution ([7]; 1.3 ppb PFOA): ≥ 2
conservative visual limit of detection ([7]; PFCA, untrained observer, threshold analysis): 10 ppb
ΔE (Host − PFCA) ([7]; PFOA 1 ppb): 4
ΔE (Host − PFCA) ([7]; PFOA 3 ppb): 6
ΔE (Host − PFCA) ([7]; PFOA 5 ppb): 8
ΔE (Host − PFCA) ([7]; PFOA 10 ppb): 11
ΔE (Host − PFCA) ([7]; PFOA 21 ppb): 12
ΔE (Host − PFCA) ([7]; PFOA 41 ppb): 15
ΔE (Host − PFCA) ([7]; PFOA 83 ppb): 17
ΔE vs starting host solution ([7]; samples from 0-5 ppb PFOA): 4-8
